Results: US20220220115A1, “HETEROCYCLIC COMPOUNDS AND USES THEREOF” (Nuvation Bio Inc., priority 2019, published 2022)

What was measured:
[1] = target: T1, WEE1 kinase enzyme (Homo sapiens, UniProt P30291); test: WEE1 IC50 determination, LanthaScreen Terbium Labeled TR-FRET kinase assay; format: biochemical; details: WEE1 enzyme 1 nM, ATP 10 μM
T1 construct: purchased Invitrogen, Life Technologies PR7373A
Procedure: IC50 values of compounds against WEE1 kinase enzyme were determined by LanthaScreen™ Terbium Labeled TR-FRET assay. Kinase assays were performed in 1× kinase buffer (#PV6135, Invitrogen, Life Technologies Grand Island, N.Y.) where total reaction volume was 10 μL in low-volume 384-well plates (#4511, Corning). Serially diluted compounds (3-fold) were incubated with WEE1 Enzyme (1 nM) (#PR7373A, Invitrogen, Life Technologies Grand Island, N.Y.) for 10 min, and a mixture of ATP (10 μM) (#A1852, Sigma, St. Louis, Mo.) and fluorescent-PolyGT substrate (200 nM) (#PV3610, Invitrogen, Life Technologies, Grand Island, N.Y.) was added and incubated in dark at room temperature for 1 h. After 1 h, 10 μL stop solution containing Terbium labeled antibody (4 nM) (#PV3529, Invitrogen, Life Technologies Grand Island, N.Y.) and EDTA (#E5134, Sigma, St. Louis, Mo.) (20 mM) in TR-FRET dilution buffer (#PV3574, Invitrogen, Life Technologies, Grand Island, N.Y.) was added. Readings were taken in a Synergy Neo Plate reader (BioTek, Winooski, Vt.) at single excitation of 340 nm and dual emission at 495 nm and 520 nm respectively.
The % activity of test samples was calculated as (Sample−Min)*100/(Max−Min). [Max: DMSO control, complete reaction with enzyme & DMSO and Min: No enzyme & DMSO]. Percent inhibition (100−% activity) was fitted to the “four-parameter logistic model” in XLfit for determination of IC50 values.

[2] = system: A427 cell line; test: Cytotoxicity assay in A427 cell line (resazurin); format: cell-based; details: Homo sapiens, A-427, A427 cells, 72 hr incubation, inhibition of proliferation
Procedure: A427 (HTB-53; ATCC), a lung epithelial cell line, was seeded in medium (MEM, 41090101; Gibco) at a cell count of 1500 cells per 100 μL per well in a 96 well edge plate (167425; ThermoFisher). Cells were allowed to grow at 37° C. for 24 hr in 5% CO2 environment (culture conditions) in a Nuaire incubator (humidified). Serially diluted test compounds (100 μL) within the desired testing concentration ranges were added to the culture plate and the cells were further incubated in culture conditions for 72 hr. The experiment was terminated at the designated incubation time by replacing the medium with 100 μL of 1 mM of resazurin (R7017; Sigma) prepared in culture medium, and the plates were further incubated in culture conditions for 4-6 hr. Fluorescence was recorded using a multimodal plate reader (Biotek Synergy Neo) at an excitation wavelength of 535 nm and emission wavelength of 590 nm to obtain relative fluorescence units. Data were analysed as follows: the background fluorescence (blank containing only medium) value was subtracted from each reading and normalized with the vehicle control (DMSO treated cells) to obtain percent survival/proliferation. Percent survival was subtracted from 100 to get the percent inhibition of proliferation which was used to calculate IC50 values. Potency of compounds in other cell lines (such as A549, As-Pc-1, Panc 10.05, A172, U-87 MG) may be determined in an analogous manner.

[3] = system: phospho-CDC2 (Tyr15) in A427 cells; test: Phospho-CDC2 (Tyr15) sandwich ELISA in A427 cells; format: cell-based; details: Homo sapiens, A-427, treatment for a specified time (e.g., 24 hr)
Procedure: Changes in the levels of phospho-CDCl2 following treatment of cells with test compounds were assessed by enzyme-linked immunosorbent assay (ELISA). A427 cells were plated in 6-well plates and cultured for 24 hr to approximately 80-90% confluency. Medium was replaced, and the cells were treated with the vehicle control or the test compound at several different concentrations. After incubation of treated cells in cell culture conditions for a specified time (e.g., 24 hr), cells were rinsed with ice-cold PBS and lysed in 1× cell lysis buffer containing protease inhibitors and phosphatase inhibitors. The cells were scraped from the plate with a cell scraper after a brief incubation on ice and transferred to a centrifuge tube, and then subjected to three freeze-thaw cycles in liquid nitrogen and a 37° C. water bath for further lysis. The lysates were centrifuged to pellet cell debris (using, for example, a 10 min centrifugation of 2000×g at 4° C.) and the supernatants transferred to fresh tubes on ice. The protein concentrations of the samples were estimated by the Bradford method or equivalent. The ELISA was carried out with the PathScan® Phospho-CDCl2 (Tyr15) Sandwich ELISA Kit (Cat. #7176, Cell Signaling Technology, Danvers, Mass.) according to the manufacturer's instructions.

T1 sequence (P30291 whole entry): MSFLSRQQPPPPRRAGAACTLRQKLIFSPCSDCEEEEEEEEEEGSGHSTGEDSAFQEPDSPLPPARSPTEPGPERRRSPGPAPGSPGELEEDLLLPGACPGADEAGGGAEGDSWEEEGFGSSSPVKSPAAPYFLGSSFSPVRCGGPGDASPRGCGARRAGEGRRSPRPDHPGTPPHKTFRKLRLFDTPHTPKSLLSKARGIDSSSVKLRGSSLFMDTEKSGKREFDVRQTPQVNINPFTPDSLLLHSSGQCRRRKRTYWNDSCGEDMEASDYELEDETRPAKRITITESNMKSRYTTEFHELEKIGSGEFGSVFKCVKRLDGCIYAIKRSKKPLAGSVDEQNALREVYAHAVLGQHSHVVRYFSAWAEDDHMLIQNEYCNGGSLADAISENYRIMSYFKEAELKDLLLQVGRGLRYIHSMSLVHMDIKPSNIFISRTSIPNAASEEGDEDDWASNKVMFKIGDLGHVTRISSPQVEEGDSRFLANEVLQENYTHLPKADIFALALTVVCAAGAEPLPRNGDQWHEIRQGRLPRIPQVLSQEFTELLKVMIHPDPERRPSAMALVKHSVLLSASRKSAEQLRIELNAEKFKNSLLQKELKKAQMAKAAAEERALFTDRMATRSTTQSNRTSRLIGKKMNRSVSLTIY

Compound | IC50 [1] [nM] | IC50 [2] [nM] | IC50 [3] [nM]
CC(C)n1c(=O)c2cnc(Nc3ccc4c(c3)CNCC4)nc2n1-c1cccc(C2(CO)CC2)n1 [1.224, 1-(6-(1-(hydroxymethyl)cyclopropyl)pyridin-2-yl)-2-isopropyl-6-((1,2,3,4-tetrahydroisoquinolin-7-yl)amino)-1,2-dihydro-3H-pyrazolo[3,4-d]pyrimidin-3-one] | 4 | 243 | 57
O=c1c2cnc(Nc3ccc4c(c3)CCNC4)nc2n(-c2cccc(C3(CO)CC3)n2)n1CC(F)(F)F [1.225, 1-(6-(1-(hydroxymethyl)cyclopropyl)pyridin-2-yl)-6-(1,2,3,4-tetrahydroisoquinolin-6-ylamino)-2-(2,2,2-trifluoroethyl)-1H-pyrazolo[3,4-d]pyrimidin-3(2H)-one] | 1 | 375 | –
CC(C)n1c(=O)c2cnc(Nc3ccc4c(c3)CCNC4)nc2n1-c1nc(C(C)(C)C)cs1 [Compound No. 1.1, 1-(4-(tert-butyl)thiazol-2-yl)-2-isopropyl-6-((1,2,3,4-tetrahydroisoquinolin-6-yl)amino)-1,2-dihydro-3H-pyrazolo[3,4-d]pyrimidin-3-one] | 4 | 530 | –
CC(C)n1c(=O)c2cnc(Nc3ccc4c(c3)CNCC4)nc2n1-c1nc(C(C)(C)C)cs1 [Compound No. 1.2, 1-(4-(tert-butyl)thiazol-2-yl)-2-isopropyl-6-((1,2,3,4-tetrahydroisoquinolin-7-yl)amino)-1,2-dihydro-3H-pyrazolo[3,4-d]pyrimidin-3-one] | < 0.2 | 585 | –
CC(C)n1c(=O)c2cnc(Nc3ccc4c(c3)CCNC4)nc2n1-c1csc(N2CCOCC2)n1 [Compound No. 1.3, 2-isopropyl-1-(2-morpholinothiazol-4-yl)-6-((1,2,3,4-tetrahydroisoquinolin-6-yl)amino)-1,2-dihydro-3H-pyrazolo[3,4-d]pyrimidin-3-one] | 8 | > 30000 | –
CCn1c(=O)c2cnc(Nc3ccc4c(c3)CCNC4)nc2n1-c1cccc(C(C)(C)C#N)n1 [Compound No. 1.4, 2-(6-(2-ethyl-3-oxo-6-((1,2,3,4-tetrahydroisoquinolin-6-yl)amino)-2,3-dihydro-1H-pyrazolo[3,4-d]pyrimidin-1-yl)pyridin-2-yl)-2-methylpropanenitrile] | 3 | 320 | –
CC(C)(C)c1csc(-n2c3nc(Nc4ccc5c(c4)CCNC5)ncc3c(=O)n2C2CC2)n1 [Compound No. 1.5, 1-(4-(tert-butyl)thiazol-2-yl)-2-cyclopropyl-6-((1,2,3,4-tetrahydroisoquinolin-6-yl)amino)-1,2-dihydro-3H-pyrazolo[3,4-d]pyrimidin-3-one] | 18 | 1270 | –
CC(C)(C)c1csc(-n2c3nc(Nc4ccc5c(c4)CNCC5)ncc3c(=O)n2C2CC2)n1 [Compound No. 1.6, 1-(4-(tert-butyl)thiazol-2-yl)-2-cyclopropyl-6-((1,2,3,4-tetrahydroisoquinolin-7-yl)amino)-1,2-dihydro-3H-pyrazolo[3,4-d]pyrimidin-3-one] | 6 | 1140 | 1120
CC(C)n1c(=O)c2cnc(Nc3ccc4c(c3)CNCC4)nc2n1-c1csc(N2CCOCC2)n1 [Compound No. 1.7, 2-isopropyl-1-(2-morpholinothiazol-4-yl)-6-((1,2,3,4-tetrahydroisoquinolin-7-yl)amino)-1,2-dihydro-3H-pyrazolo[3,4-d]pyrimidin-3-one] | 57 | > 30000 | –
CCn1c(=O)c2cnc(Nc3ccc4c(c3)CNCC4)nc2n1-c1nc(C(C)(C)C)cs1 [Compound No. 1.8, 1-(4-(tert-butyl)thiazol-2-yl)-2-ethyl-6-((1,2,3,4-tetrahydroisoquinolin-7-yl)amino)-1,2-dihydro-3H-pyrazolo[3,4-d]pyrimidin-3-one] | 4 | 993 | –
CCn1c(=O)c2cnc(Nc3ccc4c(c3)CCNC4)nc2n1-c1nc(C(C)(C)C)cs1 [Compound No. 1.10, 1-(4-(tert-butyl)thiazol-2-yl)-2-ethyl-6-((1,2,3,4-tetrahydroisoquinolin-6-yl)amino)-1,2-dihydro-3H-pyrazolo[3,4-d]pyrimidin-3-one] | 7 | 1490 | –
CC(C)(C)c1csc(-n2c3nc(Nc4ccc5c(c4)CCNC5)ncc3c(=O)n2CC(F)(F)F)n1 [Compound No. 1.11, 1-(4-(tert-butyl)thiazol-2-yl)-6-((1,2,3,4-tetrahydroisoquinolin-6-yl)amino)-2-(2,2,2-trifluoroethyl)-1,2-dihydro-3H-pyrazolo[3,4-d]pyrimidin-3-one] | 19 | 1580 | –
CC(C)(C)c1csc(-n2c3nc(Nc4ccc5c(c4)CNCC5)ncc3c(=O)n2CC(F)(F)F)n1 [Compound No. 1.12, 1-(4-(tert-butyl)thiazol-2-yl)-6-((1,2,3,4-tetrahydroisoquinolin-7-yl)amino)-2-(2,2,2-trifluoroethyl)-1,2-dihydro-3H-pyrazolo[3,4-d]pyrimidin-3-one] | 3 | 2370 | –
CC(C)(C#N)c1cccc(-n2c3nc(Nc4ccc5c(c4)CNCC5)ncc3c(=O)n2CC(F)(F)F)n1 [Compound No. 1.32, 2-methyl-2-(6-(3-oxo-6-(1,2,3,4-tetrahydroisoquinolin-7-ylamino)-2-(2,2,2-trifluoroethyl)-2,3-dihydro-1H-pyrazolo[3,4-d]pyrimidin-1-yl)pyridin-2-yl)propanenitrile] | 10 | 223 | –
CC(C)(C#N)c1cccc(-n2c3nc(Nc4ccc5c(c4)CCNC5(C)C)ncc3c(=O)n2CC(F)(F)F)n1 [Compound No. 1.33, 2-(6-(6-(1,1-dimethyl-1,2,3,4-tetrahydroisoquinolin-6-ylamino)-3-oxo-2-(2,2,2-trifluoroethyl)-2,3-dihydro-1H-pyrazolo[3,4-d]pyrimidin-1-yl)pyridin-2-yl)-2-methylpropanenitrile] | 5 | 513 | –
CC(C)(CF)c1cccc(-n2c3nc(Nc4ccc5c(c4)CCNC5(C)C)ncc3c(=O)n2C2CC2)n1 [Compound No. 1.79, 2-cyclopropyl-6-((1,1-dimethyl-1,2,3,4-tetrahydroisoquinolin-6-yl)amino)-1-(6-(1-fluoro-2-methylpropan-2-yl)pyridin-2-yl)-1,2-dihydro-3H-pyrazolo[3,4-d]pyrimidin-3-one] | 9 | 970 | –
CCn1c(=O)c2cnc(Nc3ccc4c(c3)CNCC4)nc2n1-c1cccc(C(C)(C)C#N)n1 [Compound No. 1.223, 2-(6-(2-ethyl-3-oxo-6-(1,2,3,4-tetrahydroisoquinolin-7-ylamino)-2,3-dihydro-1H-pyrazolo[3,4-d]pyrimidin-1-yl)pyridin-2-yl)-2-methylpropanenitrile] | 7 | 102 | –
